Experimental findings from patent US6583180B2, “Glucocorticoid receptor modulators” (Abbott Laboratories, priority 2001, dated 2003) are described below.

The structures appear in SMILES notation.

The target of the experiment is T1, Human glucocorticoid receptors (Homo sapiens, UniProt P04150).
T1 construct: made in house; host or cells: Sf9 insect cells, recombinant baculovirus (BAC-TO-BAC)
T1 sequence (P04150 1-777): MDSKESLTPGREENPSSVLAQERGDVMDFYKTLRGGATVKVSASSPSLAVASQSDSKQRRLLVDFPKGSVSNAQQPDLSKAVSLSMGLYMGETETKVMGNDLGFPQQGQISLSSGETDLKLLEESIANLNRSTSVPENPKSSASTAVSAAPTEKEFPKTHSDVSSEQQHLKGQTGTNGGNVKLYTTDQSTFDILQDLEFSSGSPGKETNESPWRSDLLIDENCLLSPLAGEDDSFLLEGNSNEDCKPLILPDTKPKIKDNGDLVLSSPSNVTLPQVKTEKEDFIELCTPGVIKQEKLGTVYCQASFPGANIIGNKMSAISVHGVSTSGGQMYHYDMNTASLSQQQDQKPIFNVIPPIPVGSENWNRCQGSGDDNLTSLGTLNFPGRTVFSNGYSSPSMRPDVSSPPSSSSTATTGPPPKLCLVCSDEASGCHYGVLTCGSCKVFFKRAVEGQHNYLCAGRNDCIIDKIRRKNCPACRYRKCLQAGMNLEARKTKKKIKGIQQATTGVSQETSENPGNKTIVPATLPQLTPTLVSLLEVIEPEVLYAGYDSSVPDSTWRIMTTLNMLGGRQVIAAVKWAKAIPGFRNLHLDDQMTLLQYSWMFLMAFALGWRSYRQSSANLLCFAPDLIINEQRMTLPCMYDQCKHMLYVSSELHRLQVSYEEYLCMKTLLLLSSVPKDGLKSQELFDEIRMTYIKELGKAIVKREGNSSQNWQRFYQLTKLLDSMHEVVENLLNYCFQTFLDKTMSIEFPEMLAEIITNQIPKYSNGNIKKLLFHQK
Description: Radioligand filter binding assay, displacement of 3[H]-dexamethasone from hGR. The note with it: read-out: GR Binding (% Inhibition at 1.7 μM). From the text:
Dexamethasone hereafter referred to as dex was purchased from SIGMA. […] Human glucocorticoid receptors were extracted from Sf9 cells infected with a recombinant baculovirus transfer vector containing the cloned hGR genes. Recombinant baculovirus was generated utilizing the BAC-TO-BAC expression system (Life Technologies) in accordance to instruction from the supplier. The hGR coding sequences were cloned into a baculovirus transfer vector by standard techniques. The recombinant baculoviruses expressing hGR were amplified and used to infect Sf9 cells. Infected cells were harvested 48 hrs post infection. […] The concentration of hGR in the extract was measured as specific ^3[H]-dex binding with the G25-assay as described in J. Steroid Biochem. Molec. […] The extract was aliquoted and stored at −70° C.
The filter binding assay: Dilution series of the test compounds and dex as reference were made from 10 mM (1 mM dex) stock solutions in DMSO. 10 μl of the dilutions was added in duplicates to the wells. The cell extracts were diluted 10 fold in EPMo+MTG buffer (1 mM EDTA, HPO4 20 mM (pH8), 6 mM MTG). […] 110 μl of the diluted ^3[H]-dex were added to the wells. The final concentration of hGR in the experiment was estimated to 1 nM. All preparations were made in […] on ice and with +4° C. temperated buffers. The plates were incubated over night at +4° C. (15-20 hours).
The incubation was stopped by filtration through GF/B filter on the Tomtec Cellharvester. The filtration on the Tomtec Cellharvester was programmed as follows: 1) Preparation before filtration with EP buffer (1 mM EDTA 20 mM HPO4 (pH8)) 2×[Wash/Asp 0.6 sec., Asp 0.5 sec.]; 2) Prewet of GF/B filter with EP+PEI buffer (EP buffer, 0.3% Polyethylenimine) [Asp 0.8 sec.]; 3) Filtration/harvesting of the 96-well incubation plate 3×[Wash/Asp 0.6 sec., Asp 0.5 sec.]. The GF/B filter was dried for at least 1 hour at 65° C. A MeltiLex scintillation wax was melted onto the filter with the Microsealer. The filter was placed in a samplebag, which was thereafter trimmed with scissors to fit the filter cassette. The cassette were placed in the Microbeta and measured for 1 min/position, returning ccpm (corrected counts per minute).
b=((bmax−bmin)/(1+(I/IC50)^S))+bminI
The Microbeta-instrument generates the mean cpm (counts per minute) value/minute and corrects for individual variations between the detectors thus generating corrected cpm values.

`Cc1c(NS(=O)(=O)N(C)C)cccc1N(Cc1ccccc1)Cc1ccccc1` [Example 5, N′-[3-(dibenzylamino)-2-methylphenyl]-N,N-dimethylsulfamide]: the inhibition at 1.7 µM is 75.2%.

With `Cc1c(NS(C)(=O)=O)cccc1N(Cc1ccccc1)Cc1ccc([N+](=O)[O-])cc1` [Example 8, N-{3-[benzyl(4-nitrobenzyl)amino]-2-methylphenyl}methanesulfonamide], the inhibition at 1.7 µM worked out at 75.9%.

For `Cc1c(NS(C)(=O)=O)cccc1N(Cc1ccccc1)Cc1ccc2c(c1)OCO2` [Example 15, N-{3-[(1,3-benzodioxol-5-ylmethyl)(benzyl)amino]-2-methylphenyl}methanesulfonamide], the inhibition at 1.7 µM turned out to be 77.9%.

In the case of `Cc1c(NS(C)(=O)=O)cccc1N(Cc1ccccc1)Cc1ccc2c(c1)OCCO2` [Example 16, N-{3-[benzyl(2,3-dihydro-1,4-benzodioxin-6-ylmethyl)amino]-2-methylphenyl}methanesulfonamide], the inhibition at 1.7 µM came out at 75.6%.

Consider `COc1ccc(CN(Cc2ccccc2C#N)c2cccc(NS(C)(=O)=O)c2C)c(F)c1` [Example 21, N-{3-[(2-cyanobenzyl)(2-fluoro-4-methoxybenzyl)amino]-2-methylphenyl}methanesulfonamide], for which the inhibition at 1.7 µM was found to be 71.5%.

Regarding `Cc1c(NS(C)(=O)=O)cccc1N(Cc1ccccc1Br)C(C#N)c1ccccc1` (stereo not drawn) [Example 37, N-(3-{(2-bromobenzyl)[cyano(phenyl)methyl]amino}-2-methylphenyl)methanesulfonamide], the inhibition at 1.7 µM came out at 72.5%.

Consider `C=Cc1c(NS(C)(=O)=O)cccc1N(Cc1ccccc1)Cc1ccccc1` [Example 44, N-[3-(dibenzylamino)-2-vinylphenyl]methanesulfonamide], for which the inhibition at 1.7 µM came out at 89.2%.

As to `CCOC(=O)CCNC(=O)c1ccc(Oc2ccc(CN(Cc3ccc(F)cc3F)c3cccc(NS(C)(=O)=O)c3C)cc2)cc1` [Example 68, ethyl N-(4-{4-[((2,4-difluorobenzyl){2-methyl-3-[(methylsulfonyl)amino]phenyl}amino)methyl]phenoxy}benzoyl)-beta-alaninate], the inhibition at 1.7 µM was 90.4%.

Consider `Cc1c(NS(C)(=O)=O)cccc1N(Cc1ccc(Oc2ccc(CCCC(=O)O)cc2)cc1)Cc1ccc(F)cc1F` [Example 74, 4-(4-{4-[((2,4-difluorobenzyl){2-methyl-3-[(methylsulfonyl)amino]phenyl}amino)methyl]phenoxy}phenyl)butanoic acid], for which the inhibition at 1.7 µM came to 97.2%.

`COC(=O)NCCOc1cccc(Oc2ccc(CN(Cc3ccccc3)c3cccc(NS(C)(=O)=O)c3C)cc2)c1` [Example 82, methyl 2-(3-{4-[(benzyl{2-methyl-3-[(methylsulfonyl)amino]phenyl}amino)methyl]phenoxy}phenoxy)ethylcarbamate]: the inhibition at 1.7 µM was 96.9%.

For the molecule `Cc1c(NS(C)(=O)=O)cccc1N(Cc1ccccc1)Cc1ccc(Oc2ccc(CCC(=O)OCc3ccccc3)cc2)cc1` [Example 98, benzyl 3-(4-{4-[(benzyl{2-methyl-3-[(methylsulfonyl)amino]phenyl}amino)methyl]phenoxy}phenyl)propanoate], the inhibition at 1.7 µM was found to be 87.4%.

Consider `Cc1c(NS(C)(=O)=O)cccc1N(Cc1ccccc1)Cc1ccc(Oc2cccc(OC3CCOC3=O)c2)cc1` (stereo not drawn) [Example 112, N-{3-[benzyl(4-{3-[(2-oxotetrahydrofuran-3-yl)oxy]phenoxy}benzyl)amino]-2-methylphenyl}methanesulfonamide], for which the inhibition at 1.7 µM was found to be 96.9%.

On to `Cc1c(NS(C)(=O)=O)cccc1N(Cc1ccccc1)Cc1ccc(Oc2cccc(OC(CCO)C(=O)O)c2)cc1` (stereo not drawn) [Example 113, 2-(3-{4-[(benzyl{2-methyl-3-[(methylsulfonyl)amino]phenyl}amino)methyl]phenoxy}phenoxy)-4-hydroxybutanoic acid], for which the inhibition at 1.7 µM came to 96.4%.

Regarding `Cc1c(NS(C)(=O)=O)cccc1N(Cc1ccccc1)Cc1ccc(Oc2cccc(OCCCCC(=O)O)c2)cc1` [Example 117, 5-(3-{4-[(benzyl{2-methyl-3-[(methylsulfonyl)amino]phenyl}amino)methyl]phenoxyl}phenoxy)pentanoic acid], the inhibition at 1.7 µM is 98.1%.

For `CC(=O)c1cccc(Oc2ccc(CN(Cc3ccc(F)cc3F)c3cccc(NS(C)(=O)=O)c3C)cc2)c1` [Example 140, N-{3-[[4-(3-acetylphenoxy)benzyl](2,4-difluorobenzyl)amino]-2-methylphenyl}methanesulfonamide], the inhibition at 1.7 µM was determined as 88.1%.

On to `CCOc1ccc(CN(Cc2ccc(F)cc2F)c2cccc(NS(C)(=O)=O)c2C)cc1` [Example 142, N-{3-[(2,4-difluorobenzyl)(4-ethoxybenzyl)amino]-2-methylphenyl}methanesulfonamide], for which the inhibition at 1.7 µM is 90.4%.

Consider `Cc1c(NS(C)(=O)=O)cccc1N(Cc1ccccc1)Cc1ccc(-c2ccccc2C#N)cc1` [Example 146, N-(3-{benzyl[(2′-cyano-1,1′-biphenyl-4-yl)methyl]amino}-2-methylphenyl)methanesulfonamide], for which the inhibition at 1.7 µM worked out at 28.1%.

As to `Cc1c(NS(C)(=O)=O)cccc1N(Cc1ccc(OCc2ccc3c(c2)OCO3)cc1)Cc1ccc(F)cc1F` [Example 156, N-{3-[[4-(1,3-benzodioxol-5-ylmethoxy)benzyl](2,4-difluorobenzyl)amino]-2-methylphenyl}methanesulfonamide], the inhibition at 1.7 µM worked out at 94.9%.

Consider `Cc1c(NS(C)(=O)=O)cccc1N(Cc1ccc(OCc2cc3c(cc2Cl)OCO3)cc1)Cc1ccc(F)cc1F` [Example 157, N-{3-[{4-[(6-chloro-1,3-benzodioxol-5-yl)methoxy]benzyl}(2,4-difluorobenzyl)amino]-2-methylphenyl}methanesulfonamide], for which the inhibition at 1.7 µM turned out to be 91.8%.

For `Cc1c(NS(C)(=O)=O)cccc1N(Cc1ccc(OCCc2ccccc2)cc1)Cc1ccc(F)cc1F` [Example 158, N-(3-{(2,4-difluorobenzyl)[4-(2-phenylethoxy)benzyl]amino}-2-methylphenyl)methanesulfonamide], the inhibition at 1.7 µM worked out at 93.1%.

As for `Cc1c(NS(C)(=O)=O)cccc1N(Cc1ccc(Oc2cccc(OC[C@@H]3C[C@@H](O)CC(=O)O3)c2)cc1)Cc1ccc(F)cc1F` [Example 231, N-(3-((2,4-difluorobenzyl)(4-(3-(((2S,4R)-6-oxo-4-hydroxytetrahydro-2H-pyran-2-yl)methoxy)phenoxy)benzyl)amino)-2-methylphenyl)methanesulfonamide], the inhibition at 1.7 µM turned out to be 96%.

Regarding `CCOC(=O)CCCOc1ccc(Oc2ccc(CN(Cc3ccccc3)c3cccc(NS(C)(=O)=O)c3C)cc2)cc1` [Example 232, ethyl 4-(4-{4-[(benzyl{2-methyl-3-[(methylsulfonyl)amino]phenyl}amino)methyl]phenoxy}phenoxy)butanoate], the inhibition at 1.7 µM was determined as 94.9%.

For the molecule `Cc1c(NS(C)(=O)=O)cccc1N(Cc1ccccc1)Cc1ccc(Oc2ccc(OCCCC(=O)O)cc2)cc1` [Example 233, 4-(4-{4-[(benzyl{2-methyl-3-[(methylsulfonyl)amino]phenyl}amino)methyl]phenoxy}phenoxy)butanoic acid], the inhibition at 1.7 µM was found to be 96.8%.

Consider `Cc1c(NS(C)(=O)=O)cccc1N(Cc1ccccc1)Cc1ccc(Oc2ccc(OCCCCC(=O)O)cc2)cc1` [Example 234, 5-(4-{4-[(benzyl{2-methyl-3-[(methylsulfonyl)amino]phenyl}amino)methyl]phenoxy}phenoxy)pentanoic acid], for which the inhibition at 1.7 µM worked out at 96.1%.

The term inhibition denotes how much of the control response was suppressed.
